Measured values from PubChem BioAssay AID328 (DTP/NCI, 2004).
“And” between values parts separate entries of the source, which are not always exact repeats. Identical values can stand only once. Toxic doses and inconclusive results are not listed.

System: BDF1 mice, P388 leukemia ip, median survival T/C
Assay: NCI In Vivo Anticancer Drug Screen. Data for tumor model P388 Leukemia (intraperitoneal) in B6D2F1 (BDF1) mice
Settings: endpoint: median survival time, higher = longer survival
How it was run: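 Antitumour effect was judged in vivo: survival in drug-treated mice, normalised to that of vehicle-dosed controls, gives the reported T/C.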

[1] = dose: 50.0 mg/kg/injection, schedule: Q01DX009 (ip), vehicle: saline with Tween-80
[2] = dose: 100.0 mg/kg/injection, schedule: Q01DX009 (ip), vehicle: saline with Tween-80
[3] = dose: 200.0 mg/kg/injection, schedule: Q01DX009 (ip), vehicle: saline with Tween-80
[4] = dose: 100.0 mg/kg/injection, schedule: Q01DX009 (ip), vehicle: Klucel (hydroxypropylcellulose) (HPC)
[5] = dose: 100.0 mg/kg/injection, schedule: Q04DX003 (ip), vehicle: Klucel (hydroxypropylcellulose) (HPC)
[6] = dose: 200.0 mg/kg/injection, schedule: Q04DX003 (ip), vehicle: Klucel (hydroxypropylcellulose) (HPC)
[7] = dose: 400.0 mg/kg/injection, schedule: Q04DX003 (ip), vehicle: Klucel (hydroxypropylcellulose) (HPC)
[8] = dose: 100.0 mg/kg/injection, schedule: Q04DX003 (ip), vehicle: saline with Tween-80
[9] = dose: 200.0 mg/kg/injection, schedule: Q04DX003 (ip), vehicle: saline with Tween-80
[10] = dose: 400.0 mg/kg/injection, schedule: Q01DX009 (ip), vehicle: saline with Tween-80
[11] = dose: 400.0 mg/kg/injection, schedule: Q04DX003 (ip), vehicle: saline with Tween-80
[12] = dose: 12.5 mg/kg/injection, schedule: Q01DX009 (ip), vehicle: saline with Tween-80
[13] = dose: 25.0 mg/kg/injection, schedule: Q01DX009 (ip), vehicle: saline with Tween-80
[14] = dose: 25.0 mg/kg/injection, schedule: Q04DX003 (ip), vehicle: saline with Tween-80
[15] = dose: 50.0 mg/kg/injection, schedule: Q04DX003 (ip), vehicle: saline with Tween-80

For CCOP(=O)(OCC)SCSC(C)C, the T/C (dose: 0.19 mg/kg/injection, schedule: Q01DX009 (ip), vehicle: Klucel (hydroxypropylcellulose) (HPC)) was 88 % of control and the T/C (dose: 3.12 mg/kg/injection, schedule: Q01DX009 (ip), vehicle: Klucel (hydroxypropylcellulose) (HPC)) was 96 % of control.
CC1(C)CC(C)(OC(=O)c2ccccc2)[N+]([O-])=N1 (centres undefined) was tested, and the T/C (dose: 25.0 mg/kg/injection, schedule: Q01DX005 (ip), vehicle: other) was 108 % of control, the T/C (dose: 50.0 mg/kg/injection, schedule: Q01DX005 (ip), vehicle: other) was 117 % of control and the T/C (dose: 100.0 mg/kg/injection, schedule: Q01DX005 (ip), vehicle: other) was 99 % of control. The T/C (dose: 200.0 mg/kg/injection, schedule: Q01DX005 (ip), vehicle: other) was 101 % of control and the T/C (dose: 400.0 mg/kg/injection, schedule: Q01DX005 (ip), vehicle: other) was 108 % of control.
With N#CC1OC(COC(=O)c2ccccc2)C(O)C1O (centres undefined) the T/C [1] was 101 % of control, the T/C [2] was 94 % of control and the T/C [3] was 88 % of control.
For CC1(C)CC2(C)OC2C2(C1)N=NC(=Nc1ccccc1)O2 (centres undefined), the T/C [1] was 117 % of control.
CC(=O)OC1CCC2C3CCC4=C(Cl)C(=O)CCC4C3CCC12C (centres undefined) was tested, and the T/C (dose: 100.0 mg/kg/injection, schedule: Q04DX003 (sc), vehicle: steriod suspending solution) was 90 % of control, the T/C (dose: 200.0 mg/kg/injection, schedule: Q04DX003 (sc), vehicle: steriod suspending solution) was 100 % of control and the T/C (dose: 400.0 mg/kg/injection, schedule: Q04DX003 (sc), vehicle: steriod suspending solution) was 100 % of control.
With OCC1OC(n2cnc3c(SCc4ccccc4)nc(NO)nc32)C(O)C1O (centres undefined) the T/C (dose: 200.0 mg/kg/injection, schedule: Q01DX009 (ip), vehicle: acetone) was 100 % of control.
In the case of C[C@]12CCC(=O)C=C1CC[C@H]1[C@@H]3CC[C@](O)(C(=O)CO)[C@@]3(C)C[C@H](O)[C@@]12F, the T/C (dose: 12.5 mg/kg/injection, schedule: Q01DX009 (ip), vehicle: Klucel (hydroxypropylcellulose) (HPC)) is reported as 104 % of control, the T/C (dose: 25.0 mg/kg/injection, schedule: Q01DX009 (ip), vehicle: Klucel (hydroxypropylcellulose) (HPC)) is reported as 109 % of control and the T/C (dose: 50.0 mg/kg/injection, schedule: Q01DX009 (ip), vehicle: Klucel (hydroxypropylcellulose) (HPC)) is reported as 109 % of control. The T/C [4] was 90 % of control, the T/C [5] was 120 % of control and the T/C [6] was 115 % of control. The T/C [7] was 90 % of control.
Cc1cc(C)c2nc3c(c(C(O)C4CCCCN4)c2c1)CC/C3=C\c1ccc(Cl)cc1 (centres undefined) was tested, and the T/C [1] was 114 % of control, the T/C [2] was 100 % of control and the T/C [3] was 116 % of control.
In the case of c1ccc(-c2nnc3oc(-c4ccco4)nn23)cc1, the T/C [2] is reported as 91 % of control, the T/C [8] is reported as 90 % of control and the T/C [3] is reported as 108 % of control. For the same compound, the T/C [9] was 100 % of control, the T/C [10] was 100 % of control and the T/C [11] was 95 % of control.
With O=C1NNC(c2ccccc2)C1(Cl)Cl (centres undefined) the T/C [12] was 114 % of control and the T/C [13] was 99 % of control.
In the case of COc1cccc(OC)c1-c1oc2ccccc2c(=O)c1O, the T/C [2] is reported as 107 % of control, the T/C [8] is reported as 104 % of control and the T/C [3] is reported as 100 % of control. For the same compound, the T/C [9] was 109 % of control, the T/C [10] was 100 % of control and the T/C [11] was 100 % of control.
With O=C(O)c1cc(Cl)c(C(=O)O)cc1Cl the T/C (dose: 75.0 mg/kg/injection, schedule: Q01DX009 (ip), vehicle: saline with Tween-80) was 116 % of control, the T/C (dose: 150.0 mg/kg/injection, schedule: Q01DX009 (ip), vehicle: saline with Tween-80) was 104 % of control and the T/C (dose: 300.0 mg/kg/injection, schedule: Q01DX009 (ip), vehicle: saline with Tween-80) was 108 % of control.
In the case of O=c1[nH]nc(CF)c(=O)[nH]1, the T/C (dose: 3.0 mg/kg/injection, schedule: Q01DX009 (ip), vehicle: saline) is reported as 100 % of control and 109 % of control, the T/C (dose: 6.0 mg/kg/injection, schedule: Q01DX009 (ip), vehicle: saline) is reported as 118 % of control and the T/C (dose: 12.0 mg/kg/injection, schedule: Q01DX009 (ip), vehicle: saline) is reported as 150 % of control. The T/C (dose: 24.0 mg/kg/injection, schedule: Q01DX009 (ip), vehicle: saline) was 154 % of control and 172 % of control.
Cc1c(Cl)c(Cl)c(NS(=O)(=O)c2ccccc2)c(NS(=O)(=O)c2ccccc2)c1Cl was tested, and the T/C [4] was 100 % of control, the T/C [5] was 90 % of control and the T/C (dose: 200.0 mg/kg/injection, schedule: Q01DX009 (ip), vehicle: Klucel (hydroxypropylcellulose) (HPC)) was 90 % of control. For the same compound, the T/C [6] was 104 % of control, the T/C (dose: 400.0 mg/kg/injection, schedule: Q01DX009 (ip), vehicle: Klucel (hydroxypropylcellulose) (HPC)) was 95 % of control and the T/C [7] was 100 % of control.
In the case of CCCCN(CCCC)CC(C)O (centres undefined), the T/C [14] is reported as 100 % of control, the T/C [15] is reported as 104 % of control and the T/C [8] is reported as 100 % of control.
With Cc1oc(-c2ccccc2)nc1C(=O)Cl the T/C (dose: 100.0 mg/kg/injection, schedule: Q01DX001 (ip), vehicle: saline with Tween-80) was 120 % of control, the T/C (dose: 200.0 mg/kg/injection, schedule: Q01DX001 (ip), vehicle: saline with Tween-80) was 113 % of control and the T/C (dose: 400.0 mg/kg/injection, schedule: Q01DX001 (ip), vehicle: saline with Tween-80) was 103 % of control.
In the case of O=C1c2ccccc2-c2c(Br)c3ccccc3c(=O)n21, the T/C [1] is reported as 105 % of control, the T/C [2] is reported as 105 % of control and the T/C [3] is reported as 117 % of control. For the same compound, the T/C [10] was 101 % of control.
For CCCCn1nnc2c(NN)nc(N)nc21, the T/C [13] was 100 % of control, the T/C [14] was 100 % of control and the T/C [1] was 100 % of control. The T/C [15] was 100 % of control and the T/C [8] was 100 % of control.
In the case of CC1(C)C2CC3C(=CCCC3(Cl)C#N)C1C2 (centres undefined), the T/C [5] is reported as 100 % of control, the T/C [6] is reported as 95 % of control and the T/C [7] is reported as 95 % of control.
O=C1NC(c2ccccc2)(c2ccccc2)C(=O)N1CCBr was tested, and the T/C (dose: 12.5 mg/kg/injection, schedule: Q01DX009 (ip), vehicle: saline) was 105 % of control and 121 % of control, the T/C (dose: 25.0 mg/kg/injection, schedule: Q01DX009 (ip), vehicle: saline) was 105 % of control and 113 % of control and the T/C (dose: 50.0 mg/kg/injection, schedule: Q01DX009 (ip), vehicle: saline) was 107 % of control and 113 % of control. The T/C (dose: 50.0 mg/kg/injection, schedule: Q04DX003 (ip), vehicle: saline) was 107 % of control.
C[C@H]1C=C(O)C(=O)[C@@]2(C)C[C@H]3CCC(=O)O[C@H]3C[C@H]12 was tested, and the T/C (dose: 2.5 mg/kg/injection, schedule: Q01DX009 (ip), vehicle: saline + alcohol) was 105 % of control, the T/C (dose: 5.0 mg/kg/injection, schedule: Q01DX009 (ip), vehicle: saline + alcohol) was 107 % of control and the T/C (dose: 10.0 mg/kg/injection, schedule: Q01DX009 (ip), vehicle: saline + alcohol) was 91 % of control. The T/C (dose: 20.0 mg/kg/injection, schedule: Q01DX009 (ip), vehicle: saline + alcohol) was 100 % of control.
COC(=O)C(CCCCNC(=O)OCc1ccccc1)NC(=O)C(CCCCNC(=O)OCc1ccccc1)NC(=O)OC(C)(C)C (centres undefined) was tested, and the T/C (dose: 200.0 mg/kg/injection, schedule: Q01DX005 (ip), vehicle: saline with Tween-80) was 90 % of control.
In the case of CC(C#N)(Nc1ccccc1)c1ccc(Br)cc1 (centres undefined), the T/C (dose: 100.0 mg/kg/injection, schedule: Q04DX003 (ip), vehicle: saline sonified) is reported as 104 % of control, the T/C (dose: 200.0 mg/kg/injection, schedule: Q04DX003 (ip), vehicle: saline sonified) is reported as 95 % of control and the T/C (dose: 400.0 mg/kg/injection, schedule: Q04DX003 (ip), vehicle: saline sonified) is reported as 95 % of control.
For CN(CCS)C(=N)N, the T/C (dose: 3.13 mg/kg/injection, schedule: Q01DX009 (ip), vehicle: saline with Tween-80) was 112 % of control, the T/C (dose: 6.25 mg/kg/injection, schedule: Q01DX009 (ip), vehicle: saline with Tween-80) was 99 % of control and the T/C [12] was 111 % of control. For the same compound, the T/C [13] was 104 % of control.
For Cc1nc2nc(N)[nH]c(=O)c2[nH]c1=O, the T/C [2] was 104 % of control, the T/C [3] was 100 % of control and the T/C [10] was 109 % of control.
